Measurements as given in PMC8720286 (Chemical biology & drug design, 2020).
Converted amounts (≈) assume the structure as drawn.

How the values were obtained:
Experiment in all cases: microbe, parasite or virus in culture
Mtb TF274/XDR = format: cell-based; settings: Mycobacterium tuberculosis, read-out: Mtb MIC TF274/XDR
Mtb KZN494/MDR = format: cell-based, Mycobacterium tuberculosis; settings: Mycobacterium tuberculosis, KZN494/MDR, read-out: Mtb MIC KZN494/MDR
Mtb V2475/MDR = format: cell-based; settings: Mycobacterium tuberculosis, read-out: Mtb MIC V2475/MDR
Mtb R506/XDR = format: cell-based; settings: Mycobacterium tuberculosis, read-out: Mtb MIC R506/XDR

Row | SMILES | MIC (Mtb TF274/XDR) | MIC (Mtb KZN494/MDR) | MIC (Mtb V2475/MDR) | MIC (Mtb R506/XDR)
1 | Cc1nc2ccc(Cl)cn2c1C(=O)NCCCC1CCCCC1 [Compound 16, 6-chloro-N-(3-cyclohexylpropyl)-2-methylimidazo[1,2-a]pyridine-3-carboxamide] | 1.5 µM (≈ 0.501 µg/mL) | 0.09 µM (≈ 0.03 µg/mL) | 0.37 µM (≈ 0.124 µg/mL) | 0.75 µM (≈ 0.25 µg/mL)
2 | Cc1ccc2nc(C)c(C(=O)NCCCC3CCCCC3)n2c1 [Compound 15, N-(3-cyclohexylpropyl)-2,6-dimethylimidazo[1,2-a]pyridine-3-carboxamide] | 0.2 µM (≈ 0.0627 µg/mL) | 0.05 µM (≈ 0.0157 µg/mL) | 0.2 µM (≈ 0.0627 µg/mL) | 0.1 µM (≈ 0.0313 µg/mL)
